# In PMC4449006, “Targeting KRAS Oncogene in Colon Cancer Cells with 7-Carboxylate Indolo[3,2-b]quinoline Tri-Alkylamine Derivatives” (PLoS ONE, 2015):
# What was measured:
# [1] = tested on: HCT116 cells; assay: MTS short-term cytotoxicity assay (72 h), HCT116; assay type: cell-based, human
# Method: (§1) The short-term effect of compounds at 72 h on cell growth was studied using colorectal carcinoma cell lines with different KRAS and TP53 genotypes: human colorectal carcinoma HCT116 (mut Kras, wild-type (wt) p53), and human metastatic colorectal adenocarcinoma SW620 (mut Kras, mut p53). In parallel, we also used the immortalized human embryonic kidney cell line HEK293T (wt Kras, wt p53) and normal human colon fibroblast cells CCD18co (wt Kras, wt p53).
# (§2) SW620 human colorectal adenocarcinoma cells (European Collection of Cell Cultures, ECACC, Porton Down, Wiltshire, UK), HEK293T human embryonic kidney cells (ATCC, LGC Standards, UK) HCT116 human colon carcinoma cells (ECACC), HCT116 p53(+/+) and p53(−/−) isogenic human colon cancer cells (GRCF Cell Center and Biorepository, the Johns Hopkins University, School of Medicine, Baltimore, MD, USA), were grown in Dulbecco’s modified Eagle’s medium (DMEM) supplemented with 10% fetal bovine serum, and 1% antibiotic/antimycotic (Invitrogen, Grand Island, NY, USA), CCD18co human colon fibroblasts (ATCC, CRL-1459) were grown in Minimum Essential Medium (MEM) supplemented with 10% fetal bovine serum, 1% antibiotic/antimycotic, 2 mM GlutaMAX, 0,1 mM Non-essential amino acids (NEAA) (Invitrogen) and […] Recombinant Human TNF-α (Peprotech, USA) and maintained at 37°C in a humidified atmosphere of 5% CO2.
# (§3) Cell viability was evaluated by the tetrazolium dye (MTS) Short-Term Cytotoxicity Assay. […] Following 72 h of compound exposure, cell viability was evaluated using the CellTiter 96 AQueous Non-Radioactive Cell Proliferation Assay (Promega, Madison, WI, USA), using 3-(4,5-dimethylthiazol-2-yl)-5-(3-carboxymethoxyphenyl)-2-(4-sulfophenyl)-2H-tetrazolium, inner salt (MTS) as previously described [35]. Cell viability data were expressed as mean ±SD from at least three independent experiments. IC50 and IC65 values were determined using GaphPad Prism v.5.00 (GraphPad Software). In selected experiments, cell viability was also assessed by trypan blue exclusion assay, and general cell death by LDH activity from cell culture supernatants.
# [2] = tested on: HEK293T cells; assay: MTS short-term cytotoxicity assay (72 h), HEK293T; assay type: cell-based, human; details: MTS
# Method: as §1, §2, §3
# [3] = tested on: KRAS mRNA; assay: KRAS mRNA steady-state levels by Taqman Real-time RT-PCR; details: IC50 concentrations
# [4] = tested on: HSP90A G-quadruplex DNA; assay: FRET melting assay, HSP90A G-quadruplex DNA; assay type: binding; details: standard deviation < 0.2°C
# Method: (§4) The capacity of compounds 1a-d, 2a-d and the standard G4 ligand TMPyP4 (Fig 1) to bind and stabilize KRAS [26] and HSP90A [27] G4 DNA structures as well as duplex DNA (T-loop) was evaluated by a Fluorescence Resonance Energy Transfer (FRET) melting assay. […] It was observed that the basicity of side chains correlates positively with thermal G4 stabilization of all DNA sequences up to an optimal pKa ~ 8.0–9.0 (Fig 2). Heterocyclic amines at the end of alkyl side chain (1b and 2b) appear to improve binding to G4s and complex stabilization compared to the di-ethylamine group (1a and 2a), which cannot be explained by differences in basicity between terminal groups. […] However, this was not observed for the isomeric pair 1a / 2a.
# (§5) All oligonucleotides were purchased from Eurofins MWG Synthesis GmbH, Germany. The labeled oligonucleotides used in the FRET assays had attached the donor fluorophore FAM (6-carboxyfluorescein) and the acceptor fluorophore TAMRA (6-carboxytetramethylrhodamine): KRAS21R (5’-FAM-[…]-TAMRA-3’); HSP90A (5’- [FAM]-[…]-[TAMRA]-3’); T-Loop (5’-FAM-[…]-TAMRA-3’). Each oligonucleotide was initially diluted to a storage solution at 100 μM in nuclease free water (not DEPC-treated), purchased from Ambion Applied Biosystems UK.
# (§6) The ability of IQ3A and TMPyP4 to stabilize G-quadruplex and duplex DNA sequences was investigated using a Fluorescence Resonance Energy Transfer (FRET) assay. Stock solution of the oligonucleotides sequences at 20 μM and subsequent dilutions were obtained from storage solutions diluting with K-cacodylate buffer pH = 7.4, containing 60 mM K^+ (10 mM potassium cacodylate, 50 mM KCl). The FRET probe sequences were diluted from stock to the correct concentration (0.4 μM) and then annealed by heating to 95°C for 10 min, followed by cooling to RT. Test compounds were prepared as 1 mM in 10% DMSO and 10% 1mM HCl in HPLC-grade water. The rest of the dilutions were performed using FRET buffer. Annealed DNA (50 μL) and compound solution (50 μL) were distributed across 96-well RT-PCR plates (BioRad; MJ Research, Waltham, MA, USA). Relevant controls were also performed to check for interference with the assay. Fluorescence readings were made on a DNA Engine Opticon (MJ Research) with excitation at 450–495 nm and detection at 515–545 nm, taken at intervals of 0.5°C in the range 30–100°C, with a constant temperature being maintained for 30 s prior to each reading to ensure a stable value. Experiments were performed in triplicate. Final analysis of the data was carried out with GraphPad Prism 5.0 software (GraphPad Software, Inc). The advanced curve-fitting function in GraphPad Prism was used for calculation of ΔT m values and associated standard deviations.
# [5] = tested on: T-Loop duplex DNA; assay: FRET melting assay, duplex DNA; assay type: binding; details: standard deviation < 0.2°C
# Method: as §4, §5, §6
# [6] = tested on: SW620 cells; assay: MTS short-term cytotoxicity assay (72 h), SW620; assay type: cell-based; details: 72 h, MTS, standard errors ≤ 0.1
# Method: as §1, §2, §3
# [7] = tested on: KRAS21 G-quadruplex DNA; assay: FRET melting assay, KRAS G-quadruplex DNA; assay type: binding; details: standard deviation < 0.2°C
# Method: as §4, §5, §6
smiles,measurement,setting,value
CCN(CC)CCOC(=O)c1ccc2c(c1)c1nc3ccccc3c(OCCN(CC)CC)c1n2CCN(CC)CC [1a],HCT116 IC65,"[1]; 72 h, MTS, standard errors ≤ 0.1",3.42 µM
same,Selective index (SI) = IC50 CCD-18co / IC50 HCT116,[1]; CCD18co vs HCT116,2.46
same,IC50,"[1]; Homo sapiens, HCT-116, 72 h, MTS, standard errors ≤ 0.1, read-out: HCT116 IC50",1.88 µM
same,IC50,"[2]; Homo sapiens, HEK-293T, standard errors ≤ 0.1, read-out: HEK293T IC50",3.23 µM
same,HEK293T IC65,[2]; standard errors ≤ 0.1,6.06 µM
same,down-regulation of KRAS transcription (mRNA),"[3]; HCT116, 72 h",~40%
same,down-regulation of KRAS transcription (mRNA),"[3]; SW620, 72 h",not significantly so
same,ΔTm (°C) HSP90A 1 μM,[4]; 1 μM compound,14 °C
same,ΔTm (°C) HSP90A 2 μM,[4]; 2 μM compound,20 °C
same,ΔTm (°C) T-Loop 1 μM,[5]; 1 μM compound,<2 °C
same,ΔTm (°C) T-Loop 2 μM,[5]; 2 μM compound,3 °C
same,SW620 IC65,[6],4.12 µM
same,IC50,"[6]; Homo sapiens, SW-620, read-out: SW620 IC50",2.69 µM
same,ΔTm (°C) KRAS21 1 μM,[7]; 1 μM compound,8 °C
same,ΔTm (°C) KRAS21 2 μM,[7]; 2 μM compound,12 °C
